Laboratory results taken from patent US20100168228A1, “NOVEL CHEMOTHERAPEUTIC AGENTS AGAINST INFLAMMATION AND CANCER” (RELIANCE LIFE SCIENCES PVT. LTD., priority 2006, published 2010).

What was measured:
Assay type in all cases: cell-based, human
Jurkat cells = experiment: Lipid peroxidation, TBARS assay; conditions: pretreated 3 h, TNF 1 nM 1 h
Experimental: Lipid peroxidation was assessed by the TBARS assay, which detects mainly malondialdehyde (MDA), a product of the peroxidation of polyunsaturated fatty acids and related esters. TBARS were measured by a modification of the method described previously, (Ohkawa et al., Anal. Biochem. 95:351-358. (1979)). Jurkat cells, 6×10^6 cells in 2 ml were pretreated with either media or different concentrations of CAMVE (as described in the Figure legends) for 3 h and then stimulated with 1 nM TNF for 1 h. Cells were washed before undergoing three cycles of freeze-thawing in 200 μl of water. A 20 μl aliquot was subsequently removed for Bradford protein determination, and 800 μl of assay mix (0.4% (w/v) thiobarbituric acid, 0.5% (w/v) SDS, 9.4% (v/v) acetic acid, pH 3.5) was added to the remaining sample. Samples were incubated for 60 min at 95° C., cooled at room temperature, and centrifuged at 14,000×g for 10 min, and the absorbance of the supernatants was read at 532 nm against a standard curve prepared using the MDA standard (10 mM 1,1,3,3-tetramethoxypropane in 20 mM Tris-HCL, pH 7.4). Results were calculated as nmol of MDA equivalents/mg of protein and expressed as a percentage of matched control values.

NF-κB = NF-κB activation assay, MCF-7; conditions: MCF-7, 15 μM 3 h, 0.1 nM TNF 30 min
Experimental: FIG. 4: Effect of CAMVE on NF-κB activation in different cell lines. A. HeLa, MCF-7, U937, were incubated at 37° C. for 3 h with 15 μM dose of CAMVE and then stimulated with 0.1 nM TNF for 30 min. After these treatments, nuclear extracts were prepared and assayed for NF-κB using BD Transfactor ELISA method. B. RAW 264.7 cells pretreated with indicated doses of CAMVE were stimulated with 100 ng/ml LPS for 30 min and assayed for NF-κB activation.
Cell pellet was resuspended in lysis buffer (10 mM HEPES, pH 7.9, 1.5 mM MgCl2, 10 mM KCl, 1 mM PMSF, 1 mMDTT, 0.5% NP 40, 0.1 mM EGTA and 0.1 mM EDTA) and allowed to swell on ice for 15 min, followed by centrifugation at 3300×g for 20 min. The cell pellet was resuspended in a volume of lysis buffer equal to the cell pellet volume. The cell suspension was slowly drawn down into a syringe and ejected the content in a single stroke. Disrupted cells were incubated for 15 min on ice, and the disrupted cell suspension was centrifuged at 10,000×g for 20 min at 4° C. […]
The assay was performed by using wells coated with oligonucleotides having the consensus DNA binding sites for the specific transcription factors. […] Bound transcription factor was detected by a specific Primary Antibody. […] After addition of the substrate, the Absorbance was recorded at 655 nm.

HeLa cells = experiment: Apoptosis by PARP cleavage (FACS), HeLa; conditions: 100 nM, 24 h
Experimental: (§1) FIG. 19: Effect of compound 27 on the apoptosis in cells with different p53 status. Extent of apoptosis in different cells was measured by staining the cells for PARP cleavage followed by FACS analysis. Cells were treated with 100 nM of the compound for 24 h and the level of apoptosis was seen. Percentage apoptotic populations are represented as the M2 gated population.
(§2) PARP Cleavage Assay using Flow Cytometry: Extent of PARP cleavage is determined using polyclonal antibody specifically recognizing the 85 kDa fragment of cleaved PARP (NSB 699 Novus Biologicals) and can be used as a marker for detecting apoptotic cells. Treated cells were fixed with 70% chilled ethanol and permeabilized for 30 min at RT (PBS+0.5% BSA+0.02% NaN3+0.5% saponin) and stained with anti PARP-FITC (10 μl/10^6 cells) for one hour at RT. Cells were washed twice with wash buffer (PBS+1% heat inactivated FBS) and analysed using FACS.

U937 cell line = experiment: Apoptosis by PARP cleavage (FACS), U937; conditions: U937, 100 nM, 24 h
Experimental: as §1, §2

SMILES | TNF induced lipid peroxidation (Jurkat cells) | TNF-induced NF-κB activation (NF-κB) | level of apoptosis (PARP cleavage) (HeLa cells) | level of apoptosis (PARP cleavage) (U937 cell line)
COC(=O)c1ccc(OC(=O)/C=C/c2ccc(O)c(O)c2)c(OC)c1 [compound 1, Methyl 4-{[(2E)-3-(3,4-dihydroxyphenyl)prop-2-enoyl]oxy}-3-methoxybenzoate] | significantly suppressed by CAMVE in a dose dependent manner | blocks TNF-induced NF-κB activation | – | –
COc1cc([C@@H]2Oc3c(OC)cc(/C=C/C(=O)O)cc3[C@H]2C(=O)O)ccc1O [compound 27, 5-[(E)-2-carboxyvinyl]-2β-(4-hydroxy-3-methoxyphenyl)-7-methoxy-2,3-dihydro-1-benzofuran-3α-carboxylic acid] | – | – | significant induction of apoptosis | does not show induction of apoptosis
